In patent publication US20150191469A1, “COMPOUNDS AND METHODS FOR TREATING HIV” (priority 2012, published 2015) one finds IC50 data, which are given here for 54 compounds.

For the assay, the system named is HIV. The assay can be described thus: MT4 assay: antiviral HIV activity (cell protection, cell titer glo readout at 96 hours). In kind it is cell-based. The following applies: Human immunodeficiency virus 1, MT4, 96 h, MT4 cells, cell titer glo readout at 96 hours, 10 point dose response; read-out: HIV MT4 Assay IC50. The procedure, abridged:
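MT-4 cells infected with HIV, with inhibition readout by CellTiter-Glo luminescence at 96 h relative to no-compound control. Cytotoxicity measured in parallel under the same conditions. IC50 from a 10-point, 3-4-fold dilution series spanning >1000-fold, fitted with a four-parameter logistic equation.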
For orientation: ATP-based viability assays read luminescence as a measure of living cells.
As to `Cc1nc2c(cc(C(=O)N3CCN(CC(=O)N4CCCC4)CC3)n2C)c(-c2cc(F)c3c(c2C)CCCO3)c1[C@H](OC(C)(C)C)C(=O)O` [Example 203], the IC50 was found to be 6040 nM.

In the case of `Cc1nc2c(cc(C(=O)N3CCN(CC(=O)N4CCOCC4)CC3)n2C)c(-c2cc(F)c3c(c2C)CCCO3)c1[C@H](OC(C)(C)C)C(=O)O` [Example 204], the IC50 is 11400 nM. Regarding `Cc1nc2c(cc(C(=O)N3CCOC(C)(C(=O)NC4CCCC4)C3)n2C)c(-c2cc(F)c3c(c2C)CCCO3)c1[C@H](OC(C)(C)C)C(=O)O` (stereo partly drawn) [Example 205], the IC50 turned out to be 373 nM. As to `Cc1nc2c(cc(C(=O)N3CCCN(c4nccs4)CC3)n2C)c(-c2cc(F)c3c(c2C)CCCO3)c1[C@H](OC(C)(C)C)C(=O)O` [Example 206], the IC50 was found to be 126 nM. For `CCN(CC)C(=O)C1CCCN(C(=O)c2cc3c(-c4cc(F)c5c(c4C)CCCO5)c([C@H](OC(C)(C)C)C(=O)O)c(C)nc3n2C)C1` (stereo partly drawn) [Example 207], the IC50 turned out to be 311 nM.

For the compound `Cc1nc2c(cc(C(=O)N3CCN(c4nccs4)CC3)n2C)c(-c2cc(F)c3c(c2C)CCCO3)c1[C@H](OC(C)(C)C)C(=O)O` [Example 208], the IC50 was found to be 39.6 nM. Regarding `Cc1nc2c(cc(C(=O)NCc3ccccc3)n2C)c(-c2cc(F)c3c(c2C)CCCO3)c1[C@H](OC(C)(C)C)C(=O)O` [Example 209], the IC50 is 9.4 nM. As for `Cc1nc2c(cc(C(=O)N[C@@H](C)c3ccccc3)n2C)c(-c2cc(F)c3c(c2C)CCCO3)c1[C@H](OC(C)(C)C)C(=O)O` [Example 210], the IC50 amounted to 5 nM. Consider `Cc1cnc(CNC(=O)c2cc3c(-c4cc(F)c5c(c4C)CCCO5)c([C@H](OC(C)(C)C)C(=O)O)c(C)nc3n2C)cn1` [Example 211], for which the IC50 was found to be 121 nM. `Cc1nc2c(cc(C(=O)NCCc3ccccc3)n2C)c(-c2cc(F)c3c(c2C)CCCO3)c1[C@H](OC(C)(C)C)C(=O)O` [Example 212]: the IC50 worked out at 28.8 nM. With `Cc1nc2c(cc(C(=O)NCCOc3ccccc3)n2C)c(-c2cc(F)c3c(c2C)CCCO3)c1[C@H](OC(C)(C)C)C(=O)O` [Example 213], the IC50 came to 3.9 nM.

Turning to `Cc1nc2c(cc(C(=O)NC[C@H](C)c3ccccc3)n2C)c(-c2cc(F)c3c(c2C)CCCO3)c1[C@H](OC(C)(C)C)C(=O)O` [Example 214], the half-inhibitory concentration (IC50) was 44.6 nM. To `Cc1nc2c(cc(C(=O)NC[C@@H](C)c3ccccc3)n2C)c(-c2cc(F)c3c(c2C)CCCO3)c1[C@H](OC(C)(C)C)C(=O)O` [Example 215] belongs 30 nM. On to `COc1ccc([C@@H](C)NC(=O)c2cc3c(-c4cc(F)c5c(c4C)CCCO5)c([C@H](OC(C)(C)C)C(=O)O)c(C)nc3n2C)cc1` [Example 216], for which the IC50 is 41.3 nM. With `CC(=O)NC1(c2ccccc2)CCN(C(=O)c2cc3c(-c4cc(F)c5c(c4C)CCCO5)c([C@H](OC(C)(C)C)C(=O)O)c(C)nc3n2C)CC1` [Example 217], the IC50 turned out to be 3380 nM. As for `CC1=NC2(CCN(C(=O)c3cc4c(-c5cc(F)c6c(c5C)CCCO6)c([C@H](OC(C)(C)C)C(=O)O)c(C)nc4n3C)CC2)N=C1c1ccccc1` [Example 218], the IC50 amounted to 47.3 nM. Turning to `Cc1nc2c(cc(C(=O)N3CCN(CC(=O)N(C)c4ccccc4)CC3)n2C)c(-c2cc(F)c3c(c2C)CCCO3)c1[C@H](OC(C)(C)C)C(=O)O` [Example 219], the IC50 was determined as 807 nM. As to `Cc1nc2c(cc(C(=O)N3CCN(C(=O)N(C)C)CC3)n2C)c(-c2cc(F)c3c(c2C)CCCO3)c1[C@H](OC(C)(C)C)C(=O)O` [Example 220], the 50% inhibitory concentration (IC50) worked out at 1770 nM. In the case of `Cc1nc2c(cc(C(=O)N3CCC4(CC3)C(=O)NC(=O)N4C)n2C)c(-c2cc(F)c3c(c2C)CCCO3)c1[C@H](OC(C)(C)C)C(=O)O` [Example 221], the IC50 is 17600 nM. With `Cc1nc2c(cc(C(=O)N3[C@@H]4CC[C@H]3CC(N3CCOCC3)C4)n2C)c(-c2cc(F)c3c(c2C)CCCO3)c1[C@H](OC(C)(C)C)C(=O)O` (stereo partly drawn) [Example 222], the IC50 came to 376 nM. For `Cc1nc2c(cc(C(=O)N3CCN(C4CCOCC4)C[C@H]3C)n2C)c(-c2cc(F)c3c(c2C)CCCO3)c1[C@H](OC(C)(C)C)C(=O)O` [Example 223], the half-maximal inhibitory concentration (IC50) is 121 nM.

As to `Cc1ccc(N2CCN(C(=O)c3cc4c(-c5cc(F)c6c(c5C)CCCO6)c([C@H](OC(C)(C)C)C(=O)O)c(C)nc4n3C)CC2)cc1` [Example 224], the 50% inhibitory concentration (IC50) worked out at 41.4 nM. `Cc1nc2c(cc(C(=O)N3CCN(C4CCOCC4)CC3)n2C)c(-c2cc(F)c3c(c2C)CCCO3)c1[C@H](OC(C)(C)C)C(=O)O` [Example 225]: the half-maximal inhibitory concentration (IC50) turned out to be 436 nM.

With `Cc1nc2c(cc(C(=O)NCc3ccc(N(C)C)cc3)n2C)c(-c2cc(F)c3c(c2C)CCCO3)c1[C@H](OC(C)(C)C)C(=O)O` [Example 227], the IC50 was 2.8 nM. As to `CNC(=O)c1cc2c(-c3cc(F)c4c(c3C)CCCO4)c([C@H](OC(C)(C)C)C(=O)O)c(C)nc2n1C` [Example 228], the IC50 is 136 nM. Take `Cc1nc2c(cc(C(=O)NCC3CC3)n2C)c(-c2cc(F)c3c(c2C)CCCO3)c1[C@H](OC(C)(C)C)C(=O)O` [Example 229]: the IC50 amounted to 12.2 nM.

Take `Cc1nc2c(cc(C(=O)NCc3ccc(F)cc3)n2C)c(-c2cc(F)c3c(c2C)CCCO3)c1[C@H](OC(C)(C)C)C(=O)O` [Example 230]: the IC50 came to 4.7 nM. For the compound `COCCNC(=O)c1cc2c(-c3cc(F)c4c(c3C)CCCO4)c([C@H](OC(C)(C)C)C(=O)O)c(C)nc2n1C` [Example 231], the IC50 came to 48.7 nM. Consider `Cc1nc2c(cc(C(=O)NCCC(C)(C)C)n2C)c(-c2cc(F)c3c(c2C)CCCO3)c1[C@H](OC(C)(C)C)C(=O)O` [Example 232], for which the IC50 was 2 nM.

Turning to `COc1ccc(CNC(=O)c2cc3c(-c4cc(F)c5c(c4C)CCCO5)c([C@H](OC(C)(C)C)C(=O)O)c(C)nc3n2C)cc1` [Example 233], the IC50 is 3.6 nM.

Consider `Cc1nc2c(cc(C(=O)NC3CC3)n2C)c(-c2cc(F)c3c(c2C)CCCO3)c1[C@H](OC(C)(C)C)C(=O)O` [Example 234], for which the IC50 amounted to 44.7 nM. `CSCCNC(=O)c1cc2c(-c3cc(F)c4c(c3C)CCCO4)c([C@H](OC(C)(C)C)C(=O)O)c(C)nc2n1C` [Example 235]: the IC50 came out at 32.4 nM.

As to `Cc1nc2c(cc(C(=O)NCCS(C)(=O)=O)n2C)c(-c2cc(F)c3c(c2C)CCCO3)c1[C@H](OC(C)(C)C)C(=O)O` [Example 236], the IC50 was found to be 4140 nM.

On to `Cc1nc2c(cc(C(=O)NCC3CCCCC3)n2C)c(-c2cc(F)c3c(c2C)CCCO3)c1[C@H](OC(C)(C)C)C(=O)O` [Example 237], for which the IC50 is 4.3 nM.

Consider `Cc1nc2c(cc(C(=O)NCCO)n2C)c(-c2cc(F)c3c(c2C)CCCO3)c1[C@H](OC(C)(C)C)C(=O)O` [Example 238], for which the IC50 stood at 3860 nM. Turning to `CCCCNC(=O)c1cc2c(-c3cc(F)c4c(c3C)CCCO4)c([C@H](OC(C)(C)C)C(=O)O)c(C)nc2n1C` [Example 239], the IC50 was determined as 6.5 nM. In the case of `Cc1nc2c(cc(C(=O)NCCN3CCOCC3)n2C)c(-c2cc(F)c3c(c2C)CCCO3)c1[C@H](OC(C)(C)C)C(=O)O` [Example 240], the IC50 turned out to be 370 nM. Consider `Cc1nc2c(cc(C(=O)NCCC3CCOCC3)n2C)c(-c2cc(F)c3c(c2C)CCCO3)c1[C@H](OC(C)(C)C)C(=O)O` [Example 241], for which the IC50 worked out at 21.2 nM. Regarding `Cc1nc2c(cc(C(=O)NC(C)(C)C)n2C)c(-c2cc(F)c3c(c2C)CCCO3)c1[C@H](OC(C)(C)C)C(=O)O` [Example 242], the IC50 turned out to be 79.3 nM. To `Cc1nc2c(cc(C(=O)NCC(C)(C)C)n2C)c(-c2cc(F)c3c(c2C)CCCO3)c1[C@H](OC(C)(C)C)C(=O)O` [Example 243] belongs 30 nM; to `Cc1nc2c(cc(C(=O)NC(C)C)n2C)c(-c2cc(F)c3c(c2C)CCCO3)c1[C@H](OC(C)(C)C)C(=O)O` [Example 244], 25.3 nM; to `Cc1nc2c(cc(C(=O)NCCC(F)(F)F)n2C)c(-c2cc(F)c3c(c2C)CCCO3)c1[C@H](OC(C)(C)C)C(=O)O` [Example 245], 22.5 nM. For the compound `Cc1nc2c(cc(C(=O)NCC(C)C)n2C)c(-c2cc(F)c3c(c2C)CCCO3)c1[C@H](OC(C)(C)C)C(=O)O` [Example 246], the IC50 came to 15.1 nM. In the case of `Cc1nc2c(cc(C(=O)NCCCN(C)C)n2C)c(-c2cc(F)c3c(c2C)CCCO3)c1[C@H](OC(C)(C)C)C(=O)O` [Example 247], the IC50 amounted to 18100 nM. As for `Cc1nc2c(cc(C(=O)NCCN3CCCC3=O)n2C)c(-c2cc(F)c3c(c2C)CCCO3)c1[C@H](OC(C)(C)C)C(=O)O` [Example 248], the IC50 is 3050 nM. `Cc1nc2c(cc(C(=O)NC3CCCCC3)n2C)c(-c2cc(F)c3c(c2C)CCCO3)c1[C@H](OC(C)(C)C)C(=O)O` [Example 249]: the IC50 was 12.1 nM. `Cc1nc2c(cc(C(=O)N3CCCC3)n2C)c(-c2cc(F)c3c(c2C)CCCO3)c1[C@H](OC(C)(C)C)C(=O)O` [Example 250]: the half-inhibitory concentration (IC50) worked out at 40.1 nM. In the case of `Cc1nc2c(cc(C(=O)N3CCCCC3)n2C)c(-c2cc(F)c3c(c2C)CCCO3)c1[C@H](OC(C)(C)C)C(=O)O` [Example 251], the IC50 came out at 28.3 nM. On to `COCCCNC(=O)c1cc2c(-c3cc(F)c4c(c3C)CCCO4)c([C@H](OC(C)(C)C)C(=O)O)c(C)nc2n1C` [Example 252], for which the IC50 turned out to be 65.2 nM. Take `Cc1nc2c(cc(C(=O)NCc3c(Cl)cccc3Cl)n2C)c(-c2cc(F)c3c(c2C)CCCO3)c1[C@H](OC(C)(C)C)C(=O)O` [Example 253]: the half-maximal inhibitory concentration (IC50) was determined as 1.9 nM.

On to `Cc1nc2c(cc(C(=O)NCc3c(F)cccc3F)n2C)c(-c2cc(F)c3c(c2C)CCCO3)c1[C@H](OC(C)(C)C)C(=O)O` [Example 254], for which the IC50 was 3.8 nM. Consider `Cc1nc2c(cc(C(=O)NCc3cccc(Cl)c3)n2C)c(-c2cc(F)c3c(c2C)CCCO3)c1[C@H](OC(C)(C)C)C(=O)O` [Example 255], for which the concentration for half-maximal inhibition (IC50) was 3.8 nM. The same measure for `Cc1nc2c(cc(C(=O)N(C)C3CCCCC3)n2C)c(-c2cc(F)c3c(c2C)CCCO3)c1[C@H](OC(C)(C)C)C(=O)O` [Example 256]: 34.5 nM; for `Cc1nc2c(cc(C(=O)NCc3c(F)cccc3Cl)n2C)c(-c2cc(F)c3c(c2C)CCCO3)c1[C@H](OC(C)(C)C)C(=O)O` [Example 257]: 2 nM.

As a reminder, the IC50 is the concentration needed to halve the response being measured.
